By IC50 is commonly meant the concentration needed to halve the response being measured. As a reminder, the viability, T/C is the ratio of treated to control.

In this experiment the test system is 435261-313-R-J1-PDC tumor spheroid viability. Kind of experiment: Anticancer human tumor 435261-313-R-J1-PDC patient-derived colon adenocarcinoma cell line growth inhibition [PI3K]. The settings on record: spheroids with HUVEC and MSC; for IC50: curve of first compound; for viability, T/C: stronger effect = lower value. The source says:
Combinatorial screen of targeted agents with the PI3K inhibitors inavolisib, alpelisib, duvelisib, and copanlisib in multi-cell type tumor spheroids
A high-throughput screen of multi-cell type tumor spheroids was designed to identify active combinations of targeted small molecules and PI3K pathway inhibitors. Complex spheroids include a stromal component modeled by human endothelial cells (HUVEC) and fibroblasts modeled by human mesenchymal stem cells (MSCs). The concentration ranges selected for each drug and investigational agent were based upon clinically achievable concentrations if the clinical Cmax of the agent was known.
Compounds. The drugs and investigational agents: inavolisib (NSC800729), alpelisib (NSC765974), duvelisib (NSC772469), copanlisib (NSC816437), ipatasertib (NSC767898), afuresertib (NSC778305), talazoparib (NSC767125), sapanisertib (NSC764658), selumetinib (NSC741078), tovorafenib (DAY101, NSC766906), vemurafenib (NSC761431), ravoxertinib (NSC781343), sotorasib (NSC818433), MRTX1133 (NSC 836407), abemaciclib (NSC 768073), palbociclib (NSC758247), venetoclax (NSC 766270), SY5609 (NSC837396), enzalutamide (NSC755605), and darolutamide (NSC825331), were obtained from the National Cancer Institute (NCI) Developmental Therapeutics Program Chemical Repository. The FDA-approved anticancer drug set is available from the NCI Developmental Therapeutics Program. […] The stock solutions were prepared in dimethyl sulfoxide (DMSO, Sigma-Aldrich, St. Louis, MO, cat. D2650) at 800-fold the tested concentration and stored at -70 degrees C prior to their use. All drugs and investigational agents were tested over a range starting from a high concentration at or near the clinical Cmax and decreasing in half-log increments. If the clinical Cmax for an agent had not been determined, the highest concentration tested was 10 microM.
Cell Culture. All cells were maintained in an incubator at 37 degrees C and 5% CO2 with 95% humidity. The PDC lines were cultured according to standard operating procedures established by the NCI PDMR (https://pdmr.cancer.gov/sops/default.htm). All PDCs were thawed and cultured in Matrigel-coated flasks prepared with a working solution of 1X Ham's F-12 nutrient mix, without supplementation (Invitrogen, Waltham, MA, cat. 11765054), 100 U/mL penicillin-streptomycin (Invitrogen, cat. 15140122), and 2.5% Matrigel (Corning Inc., Corning, NY, cat. 354248) for the first three passages. The 354836-022-R-J1-PDC, 475296-252-R-J1-PDC, and 997726-040-R-J2-PDC lines were cultured in 6A media, which includes advanced DMEM/F-12 (Thermo Fisher Scientific, cat. 12634028), 10 mM HEPES (Thermo Fisher Scientific, cat. 15630080), 1X GlutaMAX supplement (Thermo Fisher Scientific, cat. 35050061), 0.1 mg/mL primocin (InvivoGen, San Diego, CA, cat. ant-pm-2), 10% defined fetal bovine serum, heat inactivated (HyClone Laboratories Inc., Logan, UT, cat. SH30070.03HI), 50% L-WRN conditioned media (ATCC, cat. CRL-3276), 1.25 mM N-Acetyl-L-cysteine (Sigma-Aldrich, cat. A9165), 10 mM nicotinamide (Sigma-Aldrich, cat. N0636), 1X B-27 supplement (Thermo Fisher Scientific, cat. 17504044), 1X N-2 supplement (Thermo Fisher Scientific, cat. 17502048), and 10 microM Y-27632 dihydrochloride (Tocris Bioscience, Bristol, United Kingdom, cat. 1254). The 624824-186-R-J2-PDC line was cultured in 6C/Colon 1B media, which includes all 6A media components plus 50 ng/mL human EGF recombinant protein (Thermo Fisher Scientific, cat. PHG0311). […]
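Also: spheroids exposed to compounds for 7 days.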

Turning to `CC1(C)CCC(Nc2ncc(C(F)(F)F)c(-c3c[nH]c4c(P(C)(C)=O)c(C#N)ccc34)n2)CN1` (configuration not stated) + Cc1nc(NC(=O)N2CCCC2C(N)=O)sc1-c1ccnc(C(C)(C)C(F)(F)F)c1, the half-inhibitory concentration (IC50) (second compound 0.0316 µM) is less than 31.6 nM; the IC50 (second compound 0.1 µM) is less than 31.6 nM; the IC50 (second compound 0.316 µM) was less than 31.6 nM; the half-inhibitory concentration (IC50) (second compound 1 µM) was less than 31.6 nM; the IC50 (second compound 3.16 µM) was less than 31.6 nM; the IC50 (second compound 10 µM) is less than 31.6 nM. Also, the viability, T/C reads like this: (second compound 0.0316 µM, first compound 0.0316 µM) 47.1%; (second compound 0.0316 µM, first compound 0.1 µM) 45.9%; (second compound 0.0316 µM, first compound 0.316 µM) 39.3%; (second compound 0.0316 µM, first compound 1 µM) 38.1%; (second compound 0.0316 µM, first compound 3.16 µM) 33.7%; (second compound 0.0316 µM, first compound 10 µM) 0.64%. The viability, T/C (second compound 0.1 µM, first compound 0.0316 µM) was 48.5%; the viability, T/C (second compound 0.1 µM, first compound 0.1 µM) is 36.8%; the viability, T/C (second compound 0.1 µM, first compound 0.316 µM) is 41.9%; the viability, T/C (second compound 0.1 µM, first compound 1 µM) is 38.3%; the viability, T/C (second compound 0.1 µM, first compound 3.16 µM) was 32.4%; the viability, T/C (second compound 0.1 µM, first compound 10 µM) is 0.39%. Also, the viability, T/C is, setting by setting: (second compound 0.316 µM, first compound 0.0316 µM) 35.5%; (second compound 0.316 µM, first compound 0.1 µM) 33.5%; (second compound 0.316 µM, first compound 0.316 µM) 27.3%; (second compound 0.316 µM, first compound 1 µM) 29.3%; (second compound 0.316 µM, first compound 3.16 µM) 25.4%; (second compound 0.316 µM, first compound 10 µM) 0.33%. In addition, the viability, T/C (second compound 1 µM, first compound 0.0316 µM) was 23.3%; the viability, T/C (second compound 1 µM, first compound 0.1 µM) was 22.3%; the viability, T/C (second compound 1 µM, first compound 0.316 µM) was 26.7%; the viability, T/C (second compound 1 µM, first compound 1 µM) was 27.3%; the viability, T/C (second compound 1 µM, first compound 3.16 µM) was 14.8%; the viability, T/C (second compound 1 µM, first compound 10 µM) was 0.53%. Besides, the viability, T/C runs as follows: (second compound 3.16 µM, first compound 0.0316 µM) 14.8%; (second compound 3.16 µM, first compound 0.1 µM) 17.2%; (second compound 3.16 µM, first compound 0.316 µM) 14.7%; (second compound 3.16 µM, first compound 1 µM) 14.2%; (second compound 3.16 µM, first compound 3.16 µM) 6.95%; (second compound 3.16 µM, first compound 10 µM) 0.84%. Further, the viability, T/C is, setting by setting: (second compound 10 µM, first compound 0.0316 µM) 7.65%; (second compound 10 µM, first compound 0.1 µM) 5.94%; (second compound 10 µM, first compound 0.316 µM) 5.07%; (second compound 10 µM, first compound 1 µM) 6.14%; (second compound 10 µM, first compound 3.16 µM) 2.6%; (second compound 10 µM, first compound 10 µM) 1.22%.
Turning to `CC1(C)CCC(Nc2ncc(C(F)(F)F)c(-c3c[nH]c4c(P(C)(C)=O)c(C#N)ccc34)n2)CN1` (configuration not stated), the viability, T/C was 68.8% [middle of 4 runs] (compound 0.0316 µM); 59.7% [middle of 4 runs] (compound 0.1 µM); 54.3% [middle of 4 runs] (compound 1 µM); 51.3% [middle of 4 runs] (compound 3.16 µM); 1.48% [middle of 4 runs] (compound 10 µM).

(Values after PubChem BioAssay AID1963976 (Molecular Pharmacology Branch, DTP, NCI, 2024).)
